Measured values reported in patent publication US20210393549A1, “New use of R-enantiomer of adrenergic beta 2 receptor agonists for treatment of inflammatory bowel disease and its extra intestinal manifestations” (priority 2018, published 2021).
Entries after “also recorded” stand apart in the source; their conditions may differ.

Key:
[1] = tested on: DSS induced sub-acute colitis; assay: Prolonged (two weeks) treatment in DSS induced sub-acute colitis; format: in vivo, mice; conditions: evaluation at 23rd day, salbutamol 1 mg/kg, bambuterol 10 mg/kg
Text: Same as example 2, except. 1), Two Weeks Treatment within a Three Weeks of Study
DSS was removed from drinking water at the end of 1st week. The treatments were started at 1st day for consecutive 14 days (2 weeks). Only drinking water given for the 3rd week. The evaluation and examination were made at 23rd day as did in example 1.

TNBS-induced colitis = TNBS-induced colitis (model for Crohn's disease); format: in vivo, Male mice
Text: Male mice colitis was induced by rectal co-administration of ethanol and TNBS (Trinitrobenzenesulfonic acid). Severe colitis in mice that was characterized by weight loss and diarrhea. Histologically there were loss of normal structures, visible discrete epithelioid granuloma, multiple erosive lesions, massive transmural inflammation infiltration of lymphocytes, and the loss of goblet cells. […] There was significant alleviation of lesions, few inflammatory infiltration with growing crypts and recovery mucosa epithelia along the column. […] In addition, in TNBS treated colitis mice, there were perianal symptoms: erythema, abscesses and ulcers found in some mice, which may lead to perianal fissures or fistulas. […] The therapeutically effects of R-salbuterol, R-clenbuterol and R-bambuterol on the symptoms in TNBS induced Crohn's disease has never been reported in prior art.

[2] = tested on: IMQ-induced Psoriasis-Like Skin lesions; assay: IMQ-induced psoriasis-like skin lesions; format: in vivo, mice
Experimental: Mice were divided into control, psoriasis and psoriasis plus treatment groups, (n=8 in each group). Psoriasis were induced by topical application of imiquimod cream (62.5 mg) on shaved dorsal skin for seven consecutive days. Vaseline was used in control group. There were four treatment groups: three doses of R-salbutamol (R-Sal) (0.5 mg, 1 mg, 2 mg/kg) and Dexamethasone (1 mg/kg) as positive control. All the treatments and same volume of saline (in control group) were administered orally. In some experiment, R-bambuterol (long-last beta2 agonist) was used as an additional treatment group (n=3). Psoriasis Area Severity Index were used for evaluation. Each of the scores for erythema, scaling and skin thickness were measured separately and then group together as a calculative score. (FIG. 2)

Janus kinase 2 (JAK2) = assay: JAK2 mRNA expression in psoriasis mice; format: in vivo; conditions: plasma of psoriasis mice, dose-response fashion
Text: There was enhanced expression of mRNA of Janus kinase 2 (JAK2), a non-receptor tyrosine kinase, and the signal transducer and activator of transcription protein (Stat 2) in the plasma of psoriasis mice in comparison of control, Indicating an increase of JAK2 and Stat 2 proteins. These over expression of mRNA was inhibited by R-salbutamol in a dose-response fashion. (FIG. 3 left & right)

[3] = tested on: DNCB induced allergic contact dermatitis; assay: DNCB induced allergic contact dermatitis model (eczema); format: in vivo, mice
Experimental: Mice was shaved at abdominal area DNCB (100 μL 0.5%) is dissolved and applied to the shaved skin to induce Atopica dermatitis for 2 consecutive days. At day 8th, DNCB was applied to both inner and outer surfaces of ears to induce eczema. Treatment of R-salbutamol and indomethacin were given orally at day 1st for consecutive 8 days. The mice were scarified at day 9th for examination and evaluation. Mice were divided into four groups (n=8), namely A, Control; B. Eczema (DNCB); C. Eczema plus R-Salbutamol of 0.05, 0.1 or 0.2 mg/kg; D. Eczema plus indomethacin of 5 mg/kg. The inflammation scores were evaluated according to swelling, erythema, scratch and thickness of both ears. [table]

[4] = tested on: hemorrhoid inflammation symptoms; assay: Hemorrhoid inflammation symptoms, oral or topical; format: in vivo; conditions: given either orally or topically
Text: These perianal pathological changes somewhat similar to hemorrhoid inflammation symptoms. […] This new used of beta2 agonists in treatment of hemorrhoid inflammation symptoms has never been disclosed in prior art.

psoriasis and eczema = assay: Oral administration in rats, psoriasis and eczema; format: in vivo
[5] = tested on: DSS induced sub-acute colitis; format: in vivo; conditions: treatments started at day 7th till day 22nd
[6] = oral 8 days, R-Salbutamol 0.05, 0.1 or 0.2 mg/kg, indomethacin 5 mg/kg

Structure (SMILES): CC(C)(C)NC[C@H](O)c1ccc(O)c(CO)c1 [R-S, R-salbutamol]
- DAI, in words [1]: return toward normal
- histological score, in words [1]: return toward normal
- perianal manifestations (erythema, abscesses, ulcers) (TNBS-induced colitis; TNBS treated mice): significantly alleviated
- submucosa fibrosis and narrowing of intestinal lumen (TNBS-induced colitis; TNBS treated mice): not seen; also recorded: significantly reduce the fibrosis and the narrowing of intestinal lumen
- weight loss, diarrhea, colon length versus normal control mice (TNBS-induced colitis; oral administration): No significant different
- disease condition of TNBS colitis, in words (TNBS-induced colitis; oral administration (R-enantiomers)): great ameliorated
- Psoriasis Area Severity score, high dose ([2]; R-salbutamol 2.0 mg/kg oral): best effects for all the scores
- dose dependence of Psoriasis Area Severity score ([2]; R-salbutamol 0.5, 1, 2 mg/kg oral): dose-dependent response
- histology of psoriasis skin lesions (HE) ([2]; dorsal skin, IMQ-induced psoriasis mice): mostly recovered
- Psoriasis Area Severity score ([2]; oral, R-salbutamol 0.5, 1, 2 mg/kg, Dexamethasone 1 mg/kg, compared with psoriasis group): significantly reduced
- over expression of mRNA of JAK2 (Janus kinase 2 (JAK2)): inhibited
- ear skin histopathology ([3]; R-Salbutamol 0.05 mg/kg): little effects on eczema
- ear skin histopathology ([3]; R-Salbutamol 0.1 mg/kg): significant reduced monocyte infiltration
- ear skin histopathology ([3]; R-salbutamol 0.2 mg/kg): further reductions in monocyte infiltration and epidermal keratinization
- erythema score of both ears [3, 6]: significantly alleviated or prevented
- thickness score of both ears [3, 6]: significantly alleviated or prevented
- eczema histology and inflammatory infiltration ([3]; oral 8 days, dose-dependent response, indomethacin 5 mg/kg): significantly improved
- hemorrhoid inflammation symptoms [4]: significantly alleviated
- psoriasis and eczema (psoriasis and eczema): significantly ameliorate
- therapeutic effects in DSS induced IBD mice [5]: significant therapeutic effects
